According to patent publication US20090004185A1, “AMINO-SUBSTITUTED QUINAZOLINE DERIVATIVES AS INHIBITORS OF BETA-CATENIN/TCF-4 PATHWAY AND CANCER TREATMENT AGENTS” (WYETH, priority 2007, published 2009):

How the values were obtained:
SV40-Luc = SV40-Luc control luciferase reporter assay, SV 5A8 cell line (SV40-Luc and SV40-R-Luc), control for non-specific inhibitors; assay type: cell-based, human; conditions: SV 5A8 cells derived from SW480, 24 hours of incubation with compound, ratio Firefly/Renilla luciferase
How it was run: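 Compound exposure lasted 24 h, starting 20-24 h after seeding 1×10^4 cells/well, with titrated doses and 0.316% final DMSO. Readout was dual firefly/Renilla luminescence; Renilla under an SV40 promoter corrects for cell number and toxicity, and SV 5A8 (SV40 firefly) flags non-specific inhibitors versus Tcf-4-driven lines 33.13 and 22C11. IC50s came from the F/R ratio (% of control).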

β-catenin/Tcf-4 = assay: cells; assay type: cell-based; conditions: 24 hours of incubation with compound, ratio Firefly/Renilla luciferase
How it was run: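 SW480-derived lines with integrated reporters (Tcf-4-driven firefly luciferase; SV40 firefly as specificity control; SV40 Renilla for cell number/toxicity), treated 24 hours with titrated compounds, final 0.316% DMSO. Dual-luciferase read-out; firefly/Renilla ratio as % of control, duplicate plates, IC50 (nM) from curve fit.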

[1] = Homo sapiens, SW480, 24 h, Tcf 33.13 cells derived from SW480
[2] = Homo sapiens, Tcf22C11, 24 h, Tcf 22C11 cells derived from SW480
[3] = Tcf 22C11 cells derived from SW480
[4] = Tcf 33.13 cells derived from SW480

| IC50 (SV40-Luc; Homo sapiens, SV5A8, 24 h) [nM] | IC50 (β-catenin/Tcf-4; [1]) [nM] | IC50 (β-catenin/Tcf-4; [2]) [nM] | IC50 (SV40-Luc) [nM] | IC50 (β-catenin/Tcf-4; [3]) [nM] | IC50 (β-catenin/Tcf-4; [4]) [nM] | Structure (SMILES) |
| --- | --- | --- | --- | --- | --- | --- |
| > 9470 | 5430 | 9640 |  |  |  | CCN(CC)c1nc(NCc2ccc(NC(=O)c3ccc(Cl)cc3)cc2)c2cc(C(F)(F)F)ccc2n1 [Example 165, 4-chloro-N-[4-({[2-(diethylamino)-6-(trifluoromethyl)quinazolin-4-yl]amino}methyl)phenyl]benzamide] |
| > 9510 | > 9510 | > 9510 |  |  |  | O=C(Nc1ccc(CNc2nc(NC3CCC3)nc3ccc(C(F)(F)F)cc23)cc1)c1ccc(Cl)cc1 [Example 166, 4-chloro-N-[4-({[2-(cyclobutylamino)-6-(trifluoromethyl)quinazolin-4-yl]amino}methyl)phenyl]benzamide] |
| > 5140 | 751 | 919 |  |  |  | CNc1nc(NCc2ccc(NC(=O)c3ccc(Cl)cc3)cc2)c2cc(C(F)(F)F)ccc2n1 [Example 167, 4-chloro-N-[4-({[2-(methylamino)-6-(trifluoromethyl)quinazolin-4-yl]amino}methyl)phenyl]benzamide] |
| > 9060 | 1280 | 2810 |  |  |  | O=C(Nc1ccc(CNc2nc(NCc3ccco3)nc3ccc(C(F)(F)F)cc23)cc1)c1ccc(Cl)cc1 [Example 168, 4-chloro-N-[4-({[2-[(2-furylmethyl)amino]-6-(trifluoromethyl)quinazolin-4-yl]amino}methyl)phenyl]benzamide] |
|  |  |  | > 2330 | 229 | 453 | CN(C)c1ccc(-c2ccc3nc(N(C)C)nc(NCc4ccc(NC(=O)c5ccc(F)cc5)cc4)c3c2)nc1 [Example 169] |
|  |  |  | > 2340 | 692 | 806 | CN(C)c1cccc(-c2ccc3nc(N(C)C)nc(NCc4ccc(C(=O)Nc5ccc(F)cc5)cc4)c3c2)c1 [Example 170] |
|  |  |  | > 19300 | 2940 | 4280 | CN(C)c1nc(NCc2ccc(NC(=O)c3ccc(F)cc3)cc2)c2cc(/C=C\c3ccccc3)ccc2n1 [Example 171] |
|  |  |  | > 2830 | 397 | 308 | C=Cc1cccc(-c2ccc3nc(N(C)C)nc(NCc4ccc(C(=O)Nc5ccc(F)cc5)cc4)c3c2)c1 [Example 172] |
|  |  |  | > 18000 | > 4510 | 4480 | CN(C)c1nc(NCc2ccc(C(=O)Nc3ccc(F)cc3)cc2)c2cc(-c3ccc(/C=C/c4ccccc4)cc3)ccc2n1 [Example 173] |
|  |  |  | > 5080 | 436 | 359 | C/C=C/c1ccc2nc(N(C)C)nc(NCc3ccc(C(=O)Nc4ccc(F)cc4)cc3)c2c1 [Example 174, E-4-((2-dimethylamino)-6-(prop-1-enyl)quinazolin-4-ylamino)methyl-N-(4-fluorophenyl)benzamide] |
|  |  |  | > 4680 | 712 | 537 | CCCC/C=C/c1ccc2nc(N(C)C)nc(NCc3ccc(C(=O)Nc4ccc(F)cc4)cc3)c2c1 [Example 175, E-(4-((2-dimethylamino)-6-(hex-1-enyl)quinazolin-4-ylamino)methyl)-N-(4-fluorophenyl)benzamide] |
|  |  |  | > 4680 | 556 | 425 | CN(C)c1nc(NCc2ccc(C(=O)Nc3ccc(F)cc3)cc2)c2cc(/C=C/C(C)(C)C)ccc2n1 [Example 176] |
| > 10800 | > 5420 | > 5420 |  |  |  | Cc1ccc2c(NCc3ccc(NC(=O)Nc4ccc(Cl)cc4)cc3)nc(N(C)C)nc2c1 [Example 177, N-(4-chlorophenyl)-N′-[4-({[2-(dimethylamino)-7-methylquinazolin-4-yl]amino}methyl)phenyl]urea] |
| > 2710 | 245 | 266 |  |  |  | Cc1ccc2nc(N(C)C)nc(NCc3ccc(NC(=O)Nc4ccc(Cl)cc4)cc3)c2c1 [Example 178, N-(4-chlorophenyl)-N′-[4-({[2-(dimethylamino)-6-methylquinazolin-4-yl]amino}methyl)phenyl]urea] |
| > 4950 | 924 | 538 |  |  |  | Cc1ccc2c(NCc3ccc(NC(=O)Nc4ccc(Br)cc4)cc3)nc(N(C)C)nc2c1 [Example 179, N-(4-bromophenyl)-N′-[4-({[2-(dimethylamino)-7-methylquinazolin-4-yl]amino}methyl)phenyl]urea] |
| > 5610 | 2020 | 1460 |  |  |  | Cc1ccc2c(NCc3ccc(NC(=O)Nc4ccc(F)cc4)cc3)nc(N(C)C)nc2c1 [Example 180, N-[4-({[2-(dimethylamino)-7-methylquinazolin-4-yl]amino}methyl)phenyl]-N′-(4-fluorophenyl)urea] |
| > 2810 | 549 | 719 |  |  |  | Cc1ccc2nc(N(C)C)nc(NCc3ccc(NC(=O)Nc4ccc(F)cc4)cc3)c2c1 [Example 181, N-[4-({[2-(dimethylamino)-6-methylquinazolin-4-yl]amino}methyl)phenyl]-N′-(4-fluorophenyl)urea] |
| > 11600 | 4320 | 4280 |  |  |  | CN(C)c1nc(NCc2ccc(NC(=O)Nc3ccc(F)cc3)cc2)c2ccccc2n1 [Example 182, N-[4-({[2-(dimethylamino)quinazolin-4-yl]amino}methyl)phenyl]-N′-(4-fluorophenyl)urea] |
| > 4570 | 1140 | 1830 |  |  |  | CNc1nc(NCc2ccc(NC(=O)c3ccc(F)c(F)c3)cc2)c2c(C)cccc2n1 [Example 189, 3,4-difluoro-N-[4-({[5-methyl-2-(methylamino)quinazolin-4-yl]amino}methyl)phenyl]benzamide] |
| > 1400 | 227 | 223 |  |  |  | Cc1ccc2c(NCc3ccc(NC(=O)c4ccc(Cl)cc4)cc3)nc(N(C)C)nc2c1 [Example 196, 4-chloro-N-[4-({[2-(dimethylamino)-7-methyl-quinazolin-4-yl]amino}methyl)phenyl]benzamide] |
| > 2390 | 382 | 376 |  |  |  | Cc1ccc2c(NCc3ccc(NC(=O)c4ccc(Cl)cc4)cc3)nc(NCCc3ccccn3)nc2c1 [Example 197, 4-chloro-N-{4-[({7-methyl-2-[(2-pyridin-2-ylethyl)amino]quinazolin-4-yl}amino)methyl]phenyl}benzamide] |
| > 4560 | 491 | 804 |  |  |  | Cc1ccc2c(NCc3ccc(NC(=O)c4ccc(F)cc4)cc3)nc(N3CCN(c4ccccn4)CC3)nc2c1 [Example 200, 4-fluoro-N-[4-({[7-methyl-2-(4-pyridin-2-ylpiperazin-1-yl)quinazolin-4-yl]amino}methyl)phenyl]benzamide] |
| > 4990 | 664 | 1310 |  |  |  | Cc1ccc2c(NCc3ccc(NC(=O)c4ccc(F)cc4)cc3)nc(N(C)CCCN(C)C)nc2c1 [Example 201, N-{4-[({2-[[3-(dimethylamino)propyl](methyl)amino]-7-methylquinazolin-4-yl}amino)methyl]phenyl}-4-fluorobenzamide] |
| > 9890 | 579 | 590 |  |  |  | Cc1ccc2c(NCc3ccc(NC(=O)c4ccc(F)cc4)cc3)nc(N(C)Cc3ccccc3)nc2c1 [Example 203, N-{4-[({2-[benzyl(methyl)amino]-7-methylquinazolin-4-yl}amino)methyl]phenyl}-4-fluorobenzamide] |
| > 10000 | 3150 | > 2500 |  |  |  | COC[C@@H]1CCCN1c1nc(NCc2ccc(NC(=O)c3ccc(F)cc3)cc2)c2ccc(C)cc2n1 [Example 205, 4-fluoro-N-{4-[({2-[(2S)-2-(methoxymethyl)pyrrolidin-1-yl]-7-methylquinazolin-4-yl}amino)methyl]phenyl}benzamide] |
| > 5640 | 825 | 1380 |  |  |  | CCN(C)c1nc(NCc2ccc(NC(=O)c3ccc(F)cc3)cc2)c2ccc(C)cc2n1 [Example 210, N-{4-[({2-[ethyl(methyl)amino]-7-methylquinazolin-4-yl}amino)methyl]phenyl}-4-fluorobenzamide] |
| > 2730 | 396 | 558 |  |  |  | CCN(CC)c1nc(NCc2ccc(NC(=O)c3ccc(F)cc3)cc2)c2ccc(C)cc2n1 [Example 211, N-[4-({[2-(diethylamino)-7-methylquinazolin-4-yl]amino}methyl)phenyl]-4-fluorobenzamide] |
| > 12900 | 2680 | 3100 |  |  |  | Cc1ccc2c(NCc3ccc(NC(=O)c4ccc(F)cc4)cc3)nc(N3CCN(c4ccccc4)CC3)nc2c1 [Example 212, 4-fluoro-N-[4-({[7-methyl-2-(4-phenylpiperazin-1-yl)quinazolin-4-yl]amino}methyl)phenyl]benzamide] |
| > 12400 | 1390 | 1710 |  |  |  | Cc1ccc2c(NCc3ccc(NC(=O)c4ccc(F)cc4)cc3)nc(N3CCN(CC(=O)N4CCCC4)CC3)nc2c1 [Example 213, 4-fluoro-N-{4-[({7-methyl-2-[4-(2-oxo-2-pyrrolidin-1-ylethyl)piperazin-1-yl]quinazolin-4-yl}amino)methyl]phenyl}benzamide] |
| > 1090 | 379 | 452 |  |  |  | Cc1ccc2c(NCc3ccc(NC(=O)c4ccc(F)cc4)cc3)nc(N(C)CCO)nc2c1 [Example 214, 4-fluoro-N-{4-[({2-[(2-hydroxyethyl)(methyl)amino]-7-methylquinazolin-4-yl}amino)methyl]phenyl}benzamide] |
